“And” between values parts separate entries of the source, which are not always exact repeats. Equal values may be shown once.
Tests used:
[1] = system: stable flies (Stomoxys calcitrans); assay: in vitro membrane repellency test against stable flies; type: in vivo; conditions: 1% (w/v); for Mean Number of Landings (SEM): 20 minute test; for Mean Number of Landings (SEM) / Mean percentage repellency as calculated from the ANOVA: five replicates; for Mean percentage repellency as calculated from the ANOVA: versus IPA control
Method: (§1) Approximately 250 female Aedes aegypti mosquitoes were introduced into a chamber containing 5 wells, each covered by a Baudruche (animal intestine) membrane. Wells were filled with bovine blood, containing sodium citrate (to prevent clotting) and ATP (72 mg ATP disodium salt per 26 ml of blood), and heated to 37° C. A volume of 25 μl of isopropyl alcohol, containing one of the test specimens shown in Table 2, was applied to each membrane.
(§2) After 5 min, 4 day-old female mosquitoes were added to the chamber. The number of mosquitoes probing the membranes for each treatment was recorded at 2 min intervals over 20 min. Each datum represents the mean of three replicate experiments.
(§3) Percentage repellency was calculated for each repellent treatment at each observation time using the following equation: %Repellency=100−[(T/C)×100] where: • T=the mean number of mosquitoes probing a treated well for that replicate at time tx • C=the mean number of mosquitoes probing the IPA control well at time tx The resulting percentages were then arcsine transformed and an ANOVA was conducted using the calculated repellency from all five replicates. Multiple comparisons of means were conducted using the Student-Newman-Keuls test. The mean arcsines from ANOVA were then converted back into percentages.
DHN derived from hydrogenation of trans,cis-nepetalactone (consisting principally of 1S,9S,5R,6R-5,9-dimethyl-3-20 oxabicyclo[4.3.0]nonan-2-one; Formula 4), designated “Experimental Sample #1”, and the mixture of dihydronepetalactones prepared according to Example 2 (designated Experimental Sample #2; mDHN), were tested for repellency against Stomoxys calcitrans, essentially as described in Example 3. The DHN used here differed from that prepared in Example 4 in that it was derived from hydrogenation (using a Pd/SrCO3 catalyst) of trans,cis-nepetalactone crystallized from commercial oil (Berjé, NJ). In these experiments, an additional positive control compound was included, namely p-menthane-3,8-diol (PMD), obtained from Takasago International Corp. (USA), Rockleigh, N.J. The experimental design is summarized in Table 10, and all data presented is an average of five replicate experiments.

[2] = system: female Aedes aegypti mosquitoes; assay: in vitro membrane repellency test, probing of blood-filled wells; type: in vivo; conditions: for Mean percentage repellency as calculated from the ANOVA: versus IPA control
Method: as §1, §2
The dihydronepetalactone prepared in Example 4, Formula 4, was tested for repellency against Aedes aegypti mosquitoes essentially as described in Example 3. The experimental design is summarized in Table 6, and all data presented is from five replicate experiments.
as §3

[3] = system: unfed adult female A. albimanus; assay: in vitro membrane repellency test against anopheles mosquitoes; type: in vivo, Anopheles albimanus; conditions: 1% (w/v); for Mean Number of Probes (SEM): 20 minute test; for Mean Number of Probes (SEM) / Mean percentage repellency as calculated from the ANOVA: five replicates; for Mean percentage repellency as calculated from the ANOVA: versus IPA control
Method: as §1, §2, §3
DHN derived from hydrogenation of trans,cis-nepetalactone (consisting principally of 1S,9S,5R,6R-5,9-dimethyl-3-oxabicyclo[4.3.0]nonan-2-one; Formula 4) designated “Experimental Sample #1”, and the mixture of dihydronepetalactones prepared according to Example 2 (designated as “Experimental Sample #2”; mDHN) were tested for repellency against one hundred unfed adult female A. albimanus, essentially as described in Example 3. The DHN used here differed from that prepared in Example 4 in that it was derived from hydrogenation (using a Pd/SrCO3 catalyst) of trans,cis-nepetalactone crystallized from commercial oil (Berjé, Bloomfield, N.J.). PMD was again included as a further control. The experimental design is summarized in Table 13, and all data presented is the average of five replicate experiments.

[4] = system: female Anopheles albimanus mosquitoes; assay: mosquito repellency on forearms of human volunteers (test cage); type: in vivo; conditions: for Mean complete protection time (h) (SEM): 1.0 ml on 250 cm^2 forearm
Method: The DHN derived from hydrogenation of trans,cis-nepetalactone (consisting principally of 1S,9S,5R,6R-5,9-dimethyl-3-oxabicyclo[4.3.0]nonan-2-one; Formula 4), prepared as in Example 7, and the mixture of dihydronepetalactones prepared according to Example 2, were tested for repellency against A. albimanus, with DEET included in the test as a positive control, using adult human volunteers. Test cages (2×2×2 feet) with two sleeved entry ports on each of two opposite sides were used, with a hand rest in the center. The sides and top were screened and the base was equipped with a mirror to facilitate observations. Two hundred adult female mosquitoes, which had never received a blood meal and which had been deprived of their normal diet of 10% sucrose 24 h prior to use, were released into the test cage. Each volunteer was pre-qualified as attractive through having 10 insects land on their untreated forearms within 30 s of insertion into the cage.
A volume of 1.0 ml of each compound (either 5% or 10% (w/v) in isopropanol) was applied to 250 cm^2 areas on the forearms of six male human volunteers, the remainder of the limbs having been made inaccessible to insects. Each volunteer had different repellents applied individually onto each forearm. After allowing the applied repellents to dry for 30 min, the forearms were placed into the test cage for 5 min periods at 30 min intervals, and the number of mosquitoes probing or biting during each exposure period recorded. Breakdown of repellency was recorded for each repellent on each volunteer. Breakdown was defined as the time at which the first confirmed bite occurred; the first confirmed bite was defined as a bite which was followed by a second bite either within the same or the next exposure period. The data is presented in Table 17 as mean complete protection time.

[5] = system: deer tick Ixodes scapularis; assay: tick repellency on forearms of human volunteers; type: in vivo; conditions: for statistical comparison of protection times (ANOVA): 30% (w/v); for Mean complete protection time (SEM): 30% (w/v) in isopropanol, 25 μl topically on 4 cm circle
Method: A volume of 25 μl of each compound (30% (w/v) in isopropanol) was applied within 4 cm diameter circles drawn on the left forearms of six male human volunteers. Each volunteer had two repellents applied individually within two circles on this forearm; a single 4 cm diameter circle drawn on the other arm was left untreated to act as a control for tick attractiveness. Laboratory-reared unfed nymphs of the deer tick Ixodes scapularis were brought within 1 mm of the untreated circles on cotton buds (Q-tip®). If normal questing behavior was observed, and/or the insect crawled onto the untreated area, it was deemed qualified and then presented to a treated area. A qualified tick which quested at or crawled onto the treated area within 60 s was recorded as having not been repelled. […] Additionally, a qualified tick that crawled onto the treated area but fell off within an additional 60 s was recorded as repelled. Each volunteer had 5 qualified ticks offered to each treated circle at approximately hourly intervals. Exposures continued until 3 out of any group of 5 offered ticks were deemed ‘attracted’. The first non-repelled tick was defined as the first attracted tick which was followed by a second attracted tick within the same or following exposure period. The time of the first confirmed attracted tick was deemed to be the time at which complete repellency ‘broke down’ for that volunteer.

[6] = system: Monomorium destructor ants; conditions: after 25 seconds of exposure to vapors; cited from earlier work
[7] = 1% (w/v), 20 minute observation period, Example 5, five replicates
[8] = 1% (w/v), Example 5, five replicates

SMILES	repellency comparison between treatments (ANOVA) [1]	Mean Number of Landings (SEM) [1]	Mean percentage repellency as calculated from the ANOVA [1]	Mean Number of Probes (SEM) [2, 7]	time until mosquito probing initiated (probing density over time, FIG. 9) ([2]; 1% (w/v), Example 5)	Mean Time (min) (SEM) to "First probe" [2, 8]	Mean percentage repellency as calculated from the ANOVA [2, 8]	repellency comparison between treatments (ANOVA) [3]	Mean Number of Probes (SEM) [3]	Mean percentage repellency as calculated from the ANOVA [3]	Mean complete protection time (h) (SEM) ([4]; 5% (w/v) in isopropanol)	Mean complete protection time (h) (SEM) ([4]; 10% (w/v) in isopropanol)	statistical comparison of protection times (ANOVA) [5]	Mean complete protection time (SEM) [5]	also measured
CCN(CC)C(=O)c1cccc(C)c1 [DEET, N,N-diethyl-m-toluamide]	performed statistically equally well	17.8 (4.96)	55.5%	4.8 (3.2)	6 min	14.8 min and 14.8 (3.2) min	92.4%	statistically equal in efficacy	50.4 (13.01)	13.3%	4.0 (0.5) h	6.2 (0.63) h	statistically indistinguishable in the longevity of their repellency	124 min and 124.0 (69.95) min	Mean Time (min) (SEM) to "First probe" ([2]; 1% (w/v) in isopropyl alcohol, 25 μl on membrane, Example 3, three replicates): 12 min and 12.0 (0.0) min; Mean Number of Probes (SEM) ([2]; 1% (w/v), over 20 min, Example 3, three replicates): 4.55 and 4.55 (0.29)
C[C@H]1COC(=O)[C@@H]2[C@@H]1CC[C@@H]2C [DHN, (1S,9S,5R,6R)-5,9-dimethyl-3-oxabicyclo[4.3.0]nonan-2-one]	performed statistically equally well	21.2 (3.35)	43.2%	4.0 (2.16)	10 min	16.0 (2.09) min	96.1%	statistically equal to DEET	38.0 (9.71)	32.9%	1.8 (0.12) h	3.5 h and 3.5 (0.29) h	statistically indistinguishable in the longevity of their repellency	109 min and 109.0 (58.64) min	Mean Number of Probes (SEM) ([2]; 0.2% (w/v), 20 minute observation period, Example 5, five replicates): 23.2 (5.97); Mean Time (min) (SEM) to "First probe" ([2]; 0.2% (w/v), Example 5, five replicates): 8.4 (1.16) min; Mean Time (min) (SEM) to "First probe" ([2]; 0.2% (w/v), Example 5, five replicates, listed as dihydronepetalactone): 8.4 min; Mean Number of Probes (SEM) ([2]; 0.5% (w/v), 20 minute observation period, Example 5, five replicates): 16.2 (5.49); Mean Time (min) (SEM) to "First probe" ([2]; 0.5% (w/v), Example 5, five replicates): 9.6 (2.48) min; Mean Time (min) (SEM) to "First probe" ([2]; 0.5% (w/v), Example 5, five replicates, listed as dihydronepetalactone): 9.6 min; Mean percentage repellency as calculated from the ANOVA ([2]; 0.5% (w/v), Example 5): 66.7%; repellency rank and statistical comparison with 1% DEET ([2]; 1% (w/v), Example 5, ANOVA, Student-Newman-Keuls): ranked first in repellency, and was statistically indistinguishable from 1% DEET; Mean Time (min) (SEM) to "First probe" ([2]; 1% (w/v), Example 5, five replicates, listed as Dihydronepetalactone): approximately 16 min; statistical comparison of protection times (ANOVA) ([4]; 5% and 10% (w/v)): provided lesser protection times
CC1CCC(C(C)(C)O)C(O)C1 (centres unmarked) [PMD, p-menthane-3,8-diol]	–	33.6 (9.21)	4.7%	–	–	–	–	statistically equal in efficacy	47.2 (8.57)	11.5%	–	–	–	–	time after which compound became ineffective in repelling landings [1]: 6 min
CC1COC(=O)C2C(C)CCC12 (centres unmarked) [pure dihydronepetalactone, dihydronepetalactone]	–	–	–	–	–	–	–	–	–	–	–	–	–	–	ants that ceased to feed [6]: 50-60%

From patent US8633325B2, “Method for making insect repellent composition” (E I du Pont de Nemours and Company, priority 2002, dated 2014)
